Earlier results on 1 compound are cited in US20260130964A1, “PHARMACEUTICAL COMPOSITION COMPRISING HIGH PAY LOAD GINGER EXTRACT GRANULES AND PROCESS FOR PREPARATION THEREOF” (INDIA GLYCOLS LIMITED, priority 2022, published 2026).

For the data set the following is noted: in vivo, po.

As for `CCCCC[C@H](O)CC(=O)CCc1ccc(O)c(OC)c1` [Example 6-gingerol, 6-gingerol], the biological half-life is reported as less than 2 hrs.
